Measurements from publication PMC10791743, “Selective CK1α degraders exert antiproliferative activity against a broad range of human cancer cell lines” (Nature Communications, 2024).
“And” between values parts separate entries of the source, which are not always exact repeats. Equal values may be shown once.

How the values were obtained:
CRBN−/− MOLM-13 cells = assay: Wild type versus CRBN−/− MOLM-13 cells (viability, CRBN dependence); type: cell-based, human; parameters: key to cell viability, dose-response replicate values: % viability = 100 − % activity (RLU normalized to negative control); conditions: for cell viability, dose-response replicate values: MOLM-13 CRBN KO
Excerpt: Having identified SJ7095 as a compound with a potent antiproliferative effect in MOLM-13 cells, we next examined whether the observed effect was CRBN-dependent. […] In an orthogonal approach, we tested SJ7095 in wild-type and CRBN-knockout MOLM-13 cells in a cell viability assay (Supplementary Fig. 1b).
CRBN^−/− MOLM-13 cells were created using CRISPR-Cas9 technology. Briefly, 1 million MOLM-13 cells were transiently transfected with precomplexed ribonuclear proteins (RNPs) consisting of 400 pmol of chemically modified sgRNA (Synthego), 135pmol of SpCas9 protein (St. Jude Protein Production Core), and 500 ng of pMaxGFP (Lonza) via nucleofection (Lonza, 4D-Nucleofector™ X-unit) using solution SF and program EO100 in a 100 µl cuvette according to the manufacturer’s recommended protocol. Transfected cells (GFP+) were single-cell sorted by flow cytometry (St. Jude Flow Cytometry and Cell Sorting Shared Resource) into 96-well tissue culture-treated plates 5 days post nucleofection. Cells were clonally expanded and screened for the desired targeted modification (out-of-frame indels) via targeted deep sequencing using gene-specific primers with partial Illumina adapter overhangs as previously described. Genotyping of clones was performed using CRIS.py[59]. Knockout clones were identified as clones containing only out-of-frame indels. PowerPlex® Fusion System (Promega) was used to confirm final clone identification (Hartwell Center for Biotechnology at St. Jude). All clones tested negative for mycoplasma by the MycoAlert^TMPlus Mycoplasma Detection Kit (Lonza). CRBN knockout confirmed by immunoblot (Supplementary Material).
MOLM-13 cells were plated in Corning 8804BC white 384-well assay plates at the appropriate cell number per well and incubated overnight at 37 °C in a humidified 5 % CO2 incubator. Compounds were transferred to the assay plate from a dose-response plate using a Labcyte Echo 650 Acoustic Liquid Handler (Beckman Coulter , USA). Cytotoxicity was determined following 72 h of incubation using Promega’s CellTiter-Glo reagent according to the manufacturer’s recommendation.
Luminescence was measured on the Envision plate reader (PerkinElmer, USA). Raw luminescence relative light unit (RLU) values for each compound at each concentration were normalized to obtain % activity using the following equation (1): 100 × [(mean(negctrl) – compound)/(mean (negctrl) – mean (posctrl))]. The % activity was converted to % viability using the following equation (2):
(100 – % activity), and then pooled from replicate experiments prior to fitting. Here, negctrl and posctrl refer to the negative (DMSO) and positive controls (staurosporine) on each plate. Dose-response curves were fit to the Hill equation using the GraphPad Prism (version 10). […]

MOLM-13 cells = assay: TMT quantitative proteomics in MOLM-13; type: cell-based, human; conditions: for TMT protein intensity, CDKN1A, replicate values: DMSO 3.10E+04, 3.47E+04; for TMT protein intensity, CSNK1A1, replicate values: DMSO 4.01E+05, 4.09E+05
Protocol: We next carried out a tandem mass tag (TMT) quantitative proteomics experiment[30] to identify the neosubstrates whose degradation is induced by SJ7095. […] We confirmed the proteomics results by immunoblot analysis of CK1α in MOLM-13 cells following treatment with increasing concentrations of SJ7095 over 4 h (Fig. 2b). Under these conditions compound SJ7095 induced dose-dependent reduction of CK1α protein levels with DC50 value of 15 nM.
Each compound was tested in three wells of 2 million MOLM-13 cells each. […] Cells were then collected and washed with DPBS. Washed cells were centrifuged at 400×g for 5 min at 4 °C, the supernatant was removed, and pellets were snap frozen in liquid nitrogen and stored at −80 °C until sample submission.
The experiment was performed with a previously optimized protocol[30] with slight modification. Cell pellets were lysed in lysis buffer (50 mM HEPES, pH 8.5, 8 M urea, and 0.5% sodium deoxycholate). To profile the whole proteome, the protein lysates (approximately 100 µg of protein per sample) were proteolyzed with LysC (Wako) at an enzyme-to-substrate ratio of 1:100 (w/w) for 2 h at 21 °C. Following this the samples were diluted to a final 2 M Urea concentration, and further digested with trypsin (Promega) at an enzyme-to-substrate ratio of 1:50 (w/w) for at least 3 h. The peptides were reduced by adding 1 mM DTT for 30 min at 21 °C followed by alkylation with 10 mM iodoacetamide (IAA) for 30 min in the dark. The unreacted IAA was quenched with 30 mM DTT for 30 min. Finally, the digestion was stopped by adding trifluoroacetic acid (TFA) to 1%, desalted using C18 cartridges (Harvard Apparatus), and dried by speedvac. The purified peptides were resuspended in 50 mM HEPES (pH 8.5), and labeled with TMT reagents (Thermo Scientific). The differentially labeled samples were pooled equally, desalted, and dried for the subsequent peptide fractionation. Peptide analysis by two-dimensional liquid chromatography–tandem mass spectrometry (LC/LC–MS/MS) and MS data analysis are described in Supplementary Material. […]
Identification/quantification of proteins
The MS/MS raw data were processed by a tag-based hybrid search engine, JUMP7. The data was […]
concatenated with a reversed decoy database for evaluating False Discovery Rate (FDR). Searches were performed using a 15 ppm mass tolerance for precursor ions, fully tryptic restriction with two maximal missed cleavages, three maximal modification sites, and the assignment of b, and y ions.
TMT tags on lysine residues and N-termini (+304.2071453 Da for TMT16 and TMT18) were used for static modifications. In addition, oxidation of Methionine (Met) was considered as a dynamic modification (+15.99492 Da). Putative peptide spectral matches (PSMs) were filtered by mass accuracy and then grouped by precursor ion charge state and further filtered by JUMP-based matching scores, Jscore and ΔJn, to achieve the protein FDR below 1%. For quantification, TMT intensities of reporter ions were extracted, filtered, normalized, and summarized into peptide and […]
Differential expression analysis of proteins
Identification of differentially expressed proteins were conducted by the limma R package8. To control multiple testing, the Benjamini-Hochberg method was employed. Proteins with an adjusted […]
p value of < 0.05 and log2 fold change of > 2-fold of standard deviation (SD) were defined as differentially expressed. […]

Structure (SMILES): O=C1CCC(N2Cc3c(CNC(=O)c4ccc(F)cc4)cccc3C2=O)C(=O)N1 (centres unmarked) [SJ7095]
- Antiproliferative activity in wild-type vs CRBN-knockout MOLM-13 (CRBN−/− MOLM-13 cells): CRBN dependent
- cell viability, dose-response replicate values (CRBN−/− MOLM-13 cells; Concentration 0.00019646): 106.764 and 101.3 and 98.2605
- cell viability, dose-response replicate values (CRBN−/− MOLM-13 cells; Concentration 0.00058939): 112.453 and 102.748 and 97.5209
- cell viability, dose-response replicate values (CRBN−/− MOLM-13 cells; Concentration 0.00176818): 107.1 and 103.949 and 100.448
- cell viability, dose-response replicate values (CRBN−/− MOLM-13 cells; Concentration 0.00530453): 108.398 and 94.7486 and 104.144
- cell viability, dose-response replicate values (CRBN−/− MOLM-13 cells; Concentration 0.0159136): 99.903 and 106.159 and 104.247
- cell viability, dose-response replicate values (CRBN−/− MOLM-13 cells; Concentration 0.0477407): 84.8196 and 104.71 and 103.354
- cell viability, dose-response replicate values (CRBN−/− MOLM-13 cells; Concentration 0.143222): 100.147 and 105.205 and 99.7326
- cell viability, dose-response replicate values (CRBN−/− MOLM-13 cells; Concentration 0.429667): 110.361 and 97.2541 and 107.93
- cell viability, dose-response replicate values (CRBN−/− MOLM-13 cells; Concentration 1.289): 106.321 and 101.904 and 97.9209
- cell viability, dose-response replicate values (CRBN−/− MOLM-13 cells; Concentration 3.867): 79.059 and 84.9366 and 87.8303
- Log2FC vs. DMSO, CDKN1A (Cyclin-dependent kinase inhibitor 1) (MOLM-13 cells; 1uM, 4h): 1.031
- Log2FC vs. DMSO, CSNK1A1 (Casein kinase I isoform alpha) (MOLM-13 cells; 1uM, 4h): -1.331
- TMT protein intensity, CDKN1A, replicate values (MOLM-13 cells; 1uM, 4h): 6.19E+04 and 7.24E+04
- TMT protein intensity, CSNK1A1, replicate values (MOLM-13 cells; 1uM, 4h): 1.55E+05 and 1.67E+05
- Log2FC vs. DMSO, CDKN1A (Cyclin-dependent kinase inhibitor 1) (MOLM-13 cells; 1uM, 8h): 1.234
- Log2FC vs. DMSO, CSNK1A1 (Casein kinase I isoform alpha) (MOLM-13 cells; 1uM, 8h): -1.306
- TMT protein intensity, CDKN1A, replicate values (MOLM-13 cells; 1uM, 8h): 7.09E+04 and 8.39E+04
- TMT protein intensity, CSNK1A1, replicate values (MOLM-13 cells; 1uM, 8h): 1.62E+05 and 1.65E+05
- Log2FC vs. DMSO, CDKN1A (Cyclin-dependent kinase inhibitor 1) (MOLM-13 cells; 1uM, 24h): 1.074
- Log2FC vs. DMSO, CSNK1A1 (Casein kinase I isoform alpha) (MOLM-13 cells; 1uM, 24h): -1.500
- TMT protein intensity, CDKN1A, replicate values (MOLM-13 cells; 1uM, 24h): 7.28E+04 and 6.55E+04
- TMT protein intensity, CSNK1A1, replicate values (MOLM-13 cells; 1uM, 24h): 1.44E+05 and 1.42E+05
- Proteins significantly degraded (TMT proteomics) (MOLM-13 cells; 5 µM, 4 h): significant degradation of only three proteins out of over 9000 identified proteins was observed: CK1α, IKZF1, and IKZF3
- Log2FC vs. DMSO, CDKN1A (MOLM-13 cells; 5uM, 4h): 1.546
- Log2FC vs. DMSO, CSNK1A1 (MOLM-13 cells; 5uM, 4h): -1.318
- Log2FC vs. DMSO, CDKN1A (Cyclin-dependent kinase inhibitor 1) (MOLM-13 cells; 5uM, 8h): 1.278
- Log2FC vs. DMSO, CSNK1A1 (Casein kinase I isoform alpha) (MOLM-13 cells; 5uM, 8h): -1.485
- TMT protein intensity, CDKN1A, replicate values (MOLM-13 cells; 5uM, 8h): 8.76E+04 and 7.22E+04
- TMT protein intensity, CSNK1A1, replicate values (MOLM-13 cells; 5uM, 8h): 1.51E+05 and 1.38E+05
- Log2FC vs. DMSO, CDKN1A (Cyclin-dependent kinase inhibitor 1) (MOLM-13 cells; 5uM, 24h): 1.163
- Log2FC vs. DMSO, CSNK1A1 (Casein kinase I isoform alpha) (MOLM-13 cells; 5uM, 24h): -1.582
- TMT protein intensity, CDKN1A, replicate values (MOLM-13 cells; 5uM, 24h): 7.42E+04 and 7.27E+04
- TMT protein intensity, CSNK1A1, replicate values (MOLM-13 cells; 5uM, 24h): 1.48E+05 and 1.23E+05
- Log2FC vs. DMSO, CDKN1A (Cyclin-dependent kinase inhibitor 1) (MOLM-13 cells; 10uM, 4h): 1.536
- Log2FC vs. DMSO, CSNK1A1 (Casein kinase I isoform alpha) (MOLM-13 cells; 10uM, 4h): -1.354
- TMT protein intensity, CDKN1A, replicate values (MOLM-13 cells; 10uM, 4h): 1.01E+05 and 8.94E+04
- TMT protein intensity, CSNK1A1, replicate values (MOLM-13 cells; 10uM, 4h): 1.47E+05 and 1.71E+05
